In patent US8414938B2, “Schisandrae fructus extracts for inhibition or prevention of H1N1 influenza virus infection and its application thereof” (National Defense Medical Center, priority 2011, dated 2013):
Converted amounts (≈) assume the structure as drawn. Read-outs that look alike come from different tables or passages of the source.

Legend:
influenza virus H1N1 = test: organism not typed; type: cell-based; conditions: for MIC: read-out: MIC, H1N1
MDCK cells [1] = conditions: dog
MDCK cells [2] = test: MTT cell survival of MDCK cells treated with sample alone (D group, pharmacotoxicity)
[3] = 6.25 μg/ml, compound and H1N1 at the same time, MDCK (Table 10)
[4] = 10 μg/ml, compound and H1N1 0.01 MOI at the same time, MDCK, 48 hrs (Table 9)
[5] = 25 μg/ml, compound and H1N1 at the same time, MDCK (Table 10)
[6] = 50 μg/ml, compound and H1N1 0.01 MOI at the same time, MDCK, 48 hrs (Table 9)
[7] = 50 μg/ml, compound and H1N1 at the same time, MDCK (Table 10)
[8] = 75 μg/ml, compound and H1N1 at the same time, MDCK (Table 10)
[9] = 100 μg/ml, compound and H1N1 at the same time, MDCK (Table 10)
[10] = 12.5 μg/ml, compound and H1N1 at the same time, MDCK (Table 10)
[11] = influenza virus H1N1, MDCK cells, MTT

**Q.** For `COc1cc2c(c(OC)c1OC)-c1c(cc3c(c1OC)OCO3)C[C@H](C)[C@@](C)(O)[C@H]2OC(=O)c1ccccc1` (atropisomer, axis not shown) [Benzoylgomisin P], which “cell survival ratio, D + V” value (influenza virus H1N1; [3]) is on record?
**A.** ++ (>50% but ≦75%)

**Q.** And the “cell survival ratio, D + V” value (influenza virus H1N1; [4])?
**A.** +++ (>75% but ≦100%)

**Q.** What about the “cell survival ratio, D + V” value (influenza virus H1N1; [5]) of the same molecule?
**A.** ++++ (>100%)

**Q.** What about the “cell survival ratio, D + V” value (influenza virus H1N1; [6]) of the same molecule?
**A.** ++++ (>100%)

**Q.** What about the “cell survival ratio, D + V” value (influenza virus H1N1; [7]) of the same molecule?
**A.** ++++ (>100%)

**Q.** And the “cell survival ratio, D + V” value (influenza virus H1N1; [8])?
**A.** ++++ (>100%)

**Q.** And the “cell survival ratio, D + V” value (influenza virus H1N1; [9])?
**A.** ++++ (>100%)

**Q.** What about the MIC (influenza virus H1N1) of the same molecule?
**A.** 12.5 µg/mL (≈ 23.3 µM)

**Q.** And the “pharmaceutical toxicity / cytotoxicity” value (MDCK cells [1])?
**A.** more than 100 μg/ml

**Q.** And the “cell survival ratio, D” value (MDCK cells [2]; 12.5 μg/ml)?
**A.** ++++ (key: +/−: cell survival ratio ≦25%; +: >25% but ≦50%; ++: >50% but ≦75%; +++: >75% but ≦100%; ++++: >100%)

**Q.** Which “cell survival ratio, D + V” value (influenza virus H1N1; [3]) does the source give for `C/C=C(\C)C(=O)O[C@H]1c2cc(OC)c(OC)c(OC)c2-c2c(cc3c(c2OC)OCO3)C[C@H](C)[C@@]1(C)O` (atropisomer, axis not shown) [Tigloylgomisin P] here?
**A.** +/− (cell survival ratio of ≦25%)

**Q.** What about the “cell survival ratio, D + V” value (influenza virus H1N1; [4]) of the same molecule?
**A.** +/− (cell survival ratio of ≦25%)

**Q.** And the “cell survival ratio, D + V” value (influenza virus H1N1; [10])?
**A.** +/− (cell survival ratio of ≦25%)

**Q.** And the “cell survival ratio, D + V” value (influenza virus H1N1; [5])?
**A.** + (>25% but ≦50%)

**Q.** And the “cell survival ratio, D + V” value (influenza virus H1N1; [6])?
**A.** +++ (>75% but ≦100%)

**Q.** What about the “cell survival ratio, D + V” value (influenza virus H1N1; [7]) of the same molecule?
**A.** ++++ (>100%)

**Q.** What about the “cell survival ratio, D + V” value (influenza virus H1N1; [8]) of the same molecule?
**A.** ++++ (>100%)

**Q.** What about the “cell survival ratio, D + V” value (influenza virus H1N1; [9]) of the same molecule?
**A.** ++++ (>100%)

**Q.** What about the “MIC, H1N1” value (influenza virus H1N1; [11]) of the same molecule?
**A.** 50.0 µg/mL (≈ 97.2 µM)

**Q.** And the MIC (influenza virus H1N1; [11])?
**A.** 50 µg/mL (≈ 97.2 µM)

**Q.** What about the “pharmaceutical toxicity / cytotoxicity” value (MDCK cells [1]) of the same molecule?
**A.** more than 100 μg/ml

**Q.** `COc1cc([C@@H]2c3cc(OC)c(O)cc3C(=O)[C@H](C)[C@H]2C)ccc1O` [Epiwulignan A1] was tested. Which “cell survival ratio, D + V” value (influenza virus H1N1; [3]) did it give?
**A.** + (>25% but ≦50%)

**Q.** And the “cell survival ratio, D + V” value (influenza virus H1N1; [4])?
**A.** + (>25% but ≦50%)

**Q.** And the “cell survival ratio, D + V” value (influenza virus H1N1; [5])?
**A.** +++ (>75% but ≦100%)

**Q.** What about the “cell survival ratio, D + V” value (influenza virus H1N1; [6]) of the same molecule?
**A.** ++++ (>100%)

**Q.** What about the “cell survival ratio, D + V” value (influenza virus H1N1; [7]) of the same molecule?
**A.** ++++ (>100%)

**Q.** What about the “cell survival ratio, D + V” value (influenza virus H1N1; [8]) of the same molecule?
**A.** ++++ (>100%)

**Q.** And the “cell survival ratio, D + V” value (influenza virus H1N1; [9])?
**A.** ++++ (>100%)

**Q.** What about the “MIC, H1N1” value (influenza virus H1N1; [11]) of the same molecule?
**A.** 25.0 µg/mL (≈ 73 µM)

**Q.** What about the MIC (influenza virus H1N1; [11]) of the same molecule?
**A.** 25 µg/mL (≈ 73 µM)

**Q.** And the “pharmaceutical toxicity / cytotoxicity” value (MDCK cells [1])?
**A.** more than 100 μg/ml

**Q.** And the “cell survival ratio, D” value (MDCK cells [2]; 12.5 μg/ml)?
**A.** ++++ (key: +/−: cell survival ratio ≦25%; +: >25% but ≦50%; ++: >50% but ≦75%; +++: >75% but ≦100%; ++++: >100%)

**Q.** With `NC(=O)c1ncn([C@@H]2O[C@H](CO)[C@@H](O)[C@H]2O)n1` [Ribavirin, ribavirin, reference compound] as the molecule, how does the MIC (influenza virus H1N1) read?
**A.** 3.12 µg/mL (≈ 12.8 µM)

**Q.** With `COc1cc2c(cc1O)C(=O)[C@@H](C)[C@@H](C)[C@@H]2c1ccc(OC)c(OC)c1` [Schisandrone] as the molecule, how does the “cell survival ratio, D + V” value (influenza virus H1N1; [3]) read?
**A.** + (>25% but ≦50%)

**Q.** And the “cell survival ratio, D + V” value (influenza virus H1N1; [4])?
**A.** ++ (>50% but ≦75%)

**Q.** And the “cell survival ratio, D + V” value (influenza virus H1N1; [10])?
**A.** ++++ (>100%)

**Q.** What about the “cell survival ratio, D + V” value (influenza virus H1N1; [5]) of the same molecule?
**A.** ++++ (>100%)

**Q.** What about the “cell survival ratio, D + V” value (influenza virus H1N1; [6]) of the same molecule?
**A.** ++++ (>100%)

**Q.** What about the “cell survival ratio, D + V” value (influenza virus H1N1; [7]) of the same molecule?
**A.** ++++ (>100%)

**Q.** What about the “cell survival ratio, D + V” value (influenza virus H1N1; [8]) of the same molecule?
**A.** ++++ (>100%)

**Q.** And the “cell survival ratio, D + V” value (influenza virus H1N1; [9])?
**A.** +/− (cell survival ratio of ≦25%)

**Q.** And the MIC (influenza virus H1N1; [11])?
**A.** 12.5 µg/mL (≈ 35.1 µM)

**Q.** And the “pharmaceutical toxicity / cytotoxicity” value (MDCK cells [1])?
**A.** 100 µg/mL

**Q.** And the “cell survival ratio, D” value (MDCK cells [2]; 6.25 μg/ml)?
**A.** ++++ (key: +/−: cell survival ratio ≦25%; +: >25% but ≦50%; ++: >50% but ≦75%; +++: >75% but ≦100%; ++++: >100%)

**Q.** `COc1cc([C@@H]2c3cc(OC)c(O)cc3C(=O)[C@@H](C)[C@H]2C)ccc1O` [Wulignan A1] was tested. Which “cell survival ratio, D + V” value (influenza virus H1N1; [3]) did it give?
**A.** ++ (>50% but ≦75%)

**Q.** What about the “cell survival ratio, D + V” value (influenza virus H1N1; [4]) of the same molecule?
**A.** ++ (>50% but ≦75%)

**Q.** What about the “cell survival ratio, D + V” value (influenza virus H1N1; [10]) of the same molecule?
**A.** +++ (>75% but ≦100%)

**Q.** And the “cell survival ratio, D + V” value (influenza virus H1N1; [5])?
**A.** ++++ (>100%)

**Q.** What about the “cell survival ratio, D + V” value (influenza virus H1N1; [6]) of the same molecule?
**A.** ++++ (>100%)

**Q.** What about the “cell survival ratio, D + V” value (influenza virus H1N1; [7]) of the same molecule?
**A.** ++++ (>100%)

**Q.** What about the “cell survival ratio, D + V” value (influenza virus H1N1; [8]) of the same molecule?
**A.** ++++ (>100%)

**Q.** What about the “cell survival ratio, D + V” value (influenza virus H1N1; [9]) of the same molecule?
**A.** ++++ (>100%)

**Q.** What about the MIC (influenza virus H1N1) of the same molecule?
**A.** 12.5 µg/mL (≈ 36.5 µM)

**Q.** And the “pharmaceutical toxicity / cytotoxicity” value (MDCK cells [1])?
**A.** more than 100 μg/ml

**Q.** And the “cell survival ratio, D” value (MDCK cells [2]; 12.5 μg/ml)?
**A.** ++++ (key: +/−: cell survival ratio ≦25%; +: >25% but ≦50%; ++: >50% but ≦75%; +++: >75% but ≦100%; ++++: >100%)
